The values that follow come from US20040214832A1, “Piperazine derivative renin inhibitors” (priority 2003, published 2004).

Bounds are passed on as bounds.

For this test, the target named is T1, human renin (Homo sapiens, UniProt P00797).
T1 sequence (P00797 67-406): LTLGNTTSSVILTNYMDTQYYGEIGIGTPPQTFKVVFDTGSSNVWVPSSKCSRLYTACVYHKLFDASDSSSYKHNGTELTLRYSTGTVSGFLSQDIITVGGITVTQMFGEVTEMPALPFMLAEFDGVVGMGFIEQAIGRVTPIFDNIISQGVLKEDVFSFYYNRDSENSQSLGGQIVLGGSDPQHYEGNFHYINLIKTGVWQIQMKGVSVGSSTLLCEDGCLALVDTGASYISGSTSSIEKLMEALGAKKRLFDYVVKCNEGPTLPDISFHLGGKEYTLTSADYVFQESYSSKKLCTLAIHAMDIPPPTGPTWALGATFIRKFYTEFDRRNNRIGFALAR
Briefly: Determination of renin IC50 by tGFP FRET assay. Format: biochemical. The settings on record: Human recombinant renin, tandem GFP substrate 650 nM, 60 min incubation with compound, pH 7.4, 11-point curve. In a few lines: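 Human recombinant renin (final 50.4 μIU) preincubated 60 min with compound (5% DMSO final) in 50 mM HEPES, 1 mM EDTA, 1% PEG 8000, 1 mM DTT, 0.1% BSA, pH 7.4, then tandem-GFP substrate added at 650 nM final. FRET fluorescence read; IC50 from 11-point curves spanning 100 μM–1 pM.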
Usually IC50 stands for the point on the concentration scale where inhibition reaches its midpoint. Turning to `COc1ccccc1COCCCOc1ccc(N2C(=O)CNC[C@@H]2COc2ccc3ccccc3c2)cc1Cl` [Example 100, (6R)-1-(3-chloro-4-[3-(2-methoxybenzyloxy)-propoxy]-phenyl)-6-(naphthalene-2-yloxymethyl)-piperazin-2-one], the IC50 was above 1000 nM. Turning to `COc1ccccc1CSCCCOc1ccc(N2C(=O)CNC[C@@H]2COc2ccc3ccccc3c2)cc1` [Example 101, (6R)-1-{4-[3-(2-methoxybenzylsulfanyl)-propoxy]-phenyl}-6-(naphthalene-2-yloxymethyl)-piperazin-2-one], the half-maximal inhibitory concentration (IC50) is above 1000 nM. `COc1ccccc1CSCCCOc1ccc(N2CCNC[C@@H]2COc2ccc3ccccc3c2)cc1` [Example 102, (2R)-1-{4-[3-(2-methoxybenzylsulfanyl)-propoxy]-phenyl}-2-(naphthalene-2-yloxymethyl)-piperazine]: the IC50 was above 1000 nM. Regarding `COc1ccccc1COCCCOc1ccc(N2C(=O)CNC[C@@H]2COc2ccc3ccccc3c2)cc1C` [Example 103, (6R)-1-{4-[3-(2-methoxybenzyloxy)-propoxy]-3-methyl-phenyl}-6-(naphthalene-2-yloxymethyl)-piperazin-2-one], the IC50 was 167 nM.

On to `COc1ccccc1CCOCCOc1ccc(N2CCNC[C@@H]2COc2ccc3ccccc3c2)cc1` [Example 104], for which the IC50 amounted to 1070 nM. In the case of `COc1ccc2ccc(OC[C@H]3CNCC(=O)N3c3ccc(OCCCOCc4ccccc4OC)cc3)cc2c1` [Example 105, (6R)-1-{4-[3-(2-methoxybenzyloxy)-propoxy]-phenyl}-6-(7-methoxynaphthalen-2-yloxymethyl)-piperazin-2-one], the IC50 stood at 225 nM. For `COc1ccccc1COCCCOc1ccc(N2C(=O)CNC[C@@H]2COc2cccc(-c3ccccc3)c2)cc1` [Example 106, (6R)-6-(biphenyl-3-yloxymethyl)-1-{4-[3-(2-methoxybenzyloxy)-propoxy]-phenyl}-piperazin-2-one] the value was 1510 nM; for `COc1ccccc1COCCCOc1ccc(N2C(=O)CNC[C@@H]2COc2ccc3ccccc3c2)cc1OC` [Example 107, (6R)-1-(3-methoxy-4-[3-(2-methoxybenzyloxy)-propoxy]-phenyl)-6-(naphthalene-2-yloxymethyl)-piperazin-2-one], 537 nM. For `COc1ccccc1OCCCCOc1ccc(N2CCNC[C@@H]2COc2ccc3ccccc3c2)cc1` [Example 108, (2R)-1-{4-[4-(2-methoxyphenoxy)-butoxy]-phenyl}-2-(naphthalene-2-yloxymethyl)-piperazine] the value was 1360 nM; for `COCCCN1CCCc2ccc(OC[C@H]3CNCC(=O)N3c3ccc(OCCCOCc4ccccc4OC)cc3)cc21` [Example 109, (6R)-1-{4-[3-(2-Methoxybenzyloxy)-propoxy]-phenyl}-6-[1-(3-methoxypropyl)-1,2,3,4-tetrahydroquinolin-7-yloxymethyl]-piperazin-2-one], 3.17 nM. For `COC(=O)CN1CCCc2ccc(OC[C@H]3CNCC(=O)N3c3ccc(OCCCOCc4ccccc4OC)cc3)cc21` [Example 110, {7-[(2R)-1-{4-[3-(2-Methoxybenzyloxy)-propoxy]-phenyl}-6-oxopiperazin-2-ylmethoxy]-3,4-dihydro-2H-quinolin-1-yl}-acetic acid methyl ester] the value was 4.09 nM; for `COCCCN1C(=O)CCc2ccc(OC[C@H]3CNCC(=O)N3c3ccc(OCCCOCc4ccccc4OC)cc3)cc21` [Example 111, 7-([2R]-1-{4-[3-(2-Methoxybenzyloxy)-propoxy]-phenyl}-6-oxopiperazin-2-ylmethoxy)-1-(3-methoxypropyl)-3,4-dihydro-1H-quinolin-2-one], 3.91 nM. Regarding `COCCCN1C(=O)CCc2ccc(OC[C@@H]3CNCC(=O)N3c3ccc(OCCCOCc4ccccc4OC)cc3)cc21` [Example 112, 7-([2S]-1-{4-[3-(2-Methoxybenzyloxy)-propoxy]-phenyl}-6-oxopiperazin-2-ylmethoxy)-1′-(3-methoxypropyl)-3,4-dihydro-1H-quinolin-2-one], the IC50 stood at 1.7 nM. For `COC(=O)Cn1ccc2cc(OC[C@@H]3CNCC(=O)N3c3ccc(OCCCOCc4ccccc4OC)cc3)ccc21` [Example 113, [5-([2S]-1-{4-[3-(2-Methoxybenzyloxy)-propoxy]-phenyl}-6-oxopiperazin-2-ylmethoxy)-indol-1-yl]-acetic acid methyl ester] the value was 10 nM; for `COC(=O)CN1C(=O)CCc2ccc(OC[C@H]3CNCC(=O)N3c3ccc(OCCCOCc4ccccc4OC)cc3)cc21` [Example 116, [7-([2R]-1-{4-[3-(2-Methoxybenzyloxy)-propoxy]-phenyl}-6-oxopiperazin-2-ylmethoxy)-2-oxo-3,4-dihydro-2H-quinolin-1-yl]-acetic acid methyl ester], 4 nM. Regarding `COC(=O)CN1C(=O)COc2ccc(OC[C@H]3CNCC(=O)N3c3ccc(OCCCOCc4ccccc4OC)cc3)cc21` [Example 118, [6-([2R]-1-{4-[3-(2-Methoxybenzyloxy)-propoxy]-phenyl}-6-oxo-piperazin-2-ylmethoxy)-3-oxo-2,3-dihydro-benzo[1,4]oxazin-4-yl]-acetic acid methyl ester], the IC50 was found to be 6.83 nM.

`COC(=O)CCn1ccc2cc(OC[C@H]3CNCC(=O)N3c3ccc(OCCCOCc4ccccc4OC)cc3)ccc21` [Example 119, 3-[5-([2R]-1-{4-[3-(2-Methoxybenzyloxy)-propoxy]-phenyl}-6-oxopiperazin-2-ylmethoxy)-indol-1-yl]-propionic acid methyl ester]: the IC50 is 1.62 nM. Regarding `COc1ccccc1COCCCOc1ccc(N2C(=O)CNC[C@@H]2COc2ccc3c(ccn3CCNC(C)=O)c2)cc1` [Example 120, N-{2-[5-([2R]-1-{4-[3-(2-Methoxybenzyloxy)-propoxy]-phenyl}-6-oxopiperazin-2-ylmethoxy)-indol-1-yl]-ethyl}-acetamide], the IC50 is 4.66 nM.

Consider `COC(=O)Cn1c(C)cc2cc(OC[C@H]3CNCC(=O)N3c3ccc(OCCCOCc4ccccc4OC)cc3)ccc21` [Example 121, [5-([2R]-1-{4-[3-(2-Methoxybenzyloxy)-propoxy]-phenyl}-6-oxopiperazin-2-ylmethoxy)-2-methyl-indol-1-yl]-acetic acid methyl ester], for which the IC50 stood at 6 nM.

For `COC(=O)CCN1CCCc2ccc(OC[C@H]3CNCC(=O)N3c3ccc(OCCCOCc4ccccc4OC)cc3)cc21` [Example 122, 3-[7-([2R]-1-{4-[3-(2-Methoxybenzyloxy)-propoxy]-phenyl}-6-oxopiperazin-2-ylmethoxy)-3,4-dihydro-2H-quinolin-1-yl]-propionic acid methyl ester], the IC50 came out at 0.36 nM. Consider `CCC(=O)OCCN1CCCc2ccc(OC[C@H]3CNCC(=O)N3c3ccc(OCCCOCc4ccccc4OC)cc3)cc21` [Example 123, Propionic acid 2-[7-([2R]-1-{4-[3-(2-methoxybenzyloxy)-propoxy]-phenyl}-6-oxopiperazin-2-ylmethoxy)-3,4-dihydro-2H-quinolin-1-yl]-ethyl ester], for which the IC50 turned out to be 9 nM. `COc1ccccc1COCCCOc1ccc(N2C(=O)CNC[C@@H]2COc2ccc3c(c2)N(CCNC(C)=O)CCC3)cc1` [Example 124, N-{2-[7-([2R]-1-{4-[3-(2-Methoxybenzyloxy)-propoxy]-phenyl}-6-oxopiperazin-2-ylmethoxy)-3,4-dihydro-2H-quinolin-1-yl]-ethyl}-acetamide]: the IC50 was determined as 0.35 nM. For `COc1ccccc1COCCCOc1ccc(N2CCNC[C@@H]2COc2ccc3c(c2)N(CCNC(C)=O)CCC3)cc1` [Example 125, N-{2-[7-([2R]-1-{4-[3-(2-Methoxybenzyloxy)-propoxy]-phenyl}-piperazin-2-ylmethoxy)-3,4-dihydro-2H-quinolin-1-yl]-ethyl}-acetamide] the value was 0.53 nM. Consider `CC(=O)NCCN1CCCc2ccc(OC[C@H]3CNCC(=O)N3c3ccc(OCCCOCc4ccccc4F)cc3)cc21` [Example 126, N-{2-[7-([2R]-1-{4-[3-(2-Fluorobenzyloxy)-propoxy]-phenyl}-6-oxopiperazin-2-ylmethoxy)-3,4-dihydro-2H-quinolin-1-yl]-ethyl}-acetamide], for which the IC50 was found to be 5 nM.

Consider `COCCCN1C(=O)COc2ccc(SC[C@H]3CNCC(=O)N3c3ccc(OCCCOCc4ccccc4OC)cc3)cc21` [Example 128, 6-([2R]-1-{4-[3-(2-Methoxybenzyloxy)-propoxy]-phenyl}-6-oxo-piperazin-2-ylmethylsulfanyl)-4-(3-methoxypropyl)-4H-benzo[1,4]oxazin-3-one], for which the IC50 came out at 0.18 nM. For `CCOC(=O)CN1C(=O)COc2ccc(SC[C@H]3CNCC(=O)N3c3ccc(OCCCOCc4ccccc4OC)cc3)cc21` [Example 129, [6-([2R]-1-{4-[3-(2-Methoxybenzyloxy)-propoxy]-phenyl}-6-oxo-piperazin-2-ylmethylsulfanyl)-3-oxo-2,3-dihydro-benzo[1,4]oxazin-4-yl]-acetic acid ethyl ester] the value was 0.17 nM; for `CCOC(=O)Cn1ccc2ccc(OC[C@H]3CNCC(=O)N3c3ccc(OCCCOCc4ccccc4OC)cc3)cc21` [Example 132, [6-([2R]-1-{4-[3-(2-Methoxybenzyloxy)-propoxy]-phenyl}-6-oxo-piperazin-2-ylmethoxy)-indol-1-yl]-acetic acid ethyl ester], 6 nM.
